Values joined by “and” are separate entries in the source; they are usually repeats but may differ in a detail not shown here. Equal entries are not always repeated. “Also recorded” adds a separate entry of the source. Where two headings read alike, the source gives them in different places. One block for each compound: values may come before it.
Key:
[1] = cited from earlier work
[2] = Hydrolytic decomposition in 1 M NaOD in 9:1 v/v CD3OD/D2O
[3] = pKaH+ determination by Lambert's method with reference bases (1H NMR); details: for pKaH+: Lambert's method
Procedure: The pKaH^+ values shown were determined in CD3CN using Lambert’s method[8] with appropriate reference bases (see Supporting Information, Section 2.0).

[4] = Base-mediated elimination of HBr from 4-bromophenethyl bromide: deprotonation kinetics and protonation vs alkylation; details: for Half-life, t1/2: calculated based on second-order kinetics; for half-life (h) (25 °C) / half-life (h) (80 °C): deprotonation of 4-bromophenethyl bromide
[5] = hydrolytic decomposition, 1 M NaOD, 9:1 CD3OD/D2O, 25 °C
[6] = 25 °C, 1 M NaOD in 9:1 d4-methanol:D2O, pseudo-first-order
[7] = hydrolytic decomposition, 1 M NaOD, 9:1 CD3OD/D2O, 80 °C
[8] = 80 °C, 1 M NaOD in 9:1 d4-methanol:D2O, pseudo-first-order
[9] = Table 1, conventional superbases
[10] = Table S1, conventional superbases

Structure (SMILES): NCCCCN [1,4-diaminobutane]
pKaH+ ([1]; in CD3CN, reference base): 20.1

Structure (SMILES): C1COCCOCCOCCOCCOCCOCCO1.FC(F)(F)c1cc(CNCc2cc(C(F)(F)F)cc(C(F)(F)F)c2)cc(C(F)(F)F)c1 [21C7⊂3]
hydrolytic stability (in words) ([2]; 1 M NaOD, 9:1 CD3OD/D2O): consumed completely within a matter of minutes; also recorded: decompose quickly | half-life (25 °C) [2, 5]: <0.083 h | pKaH+ (MeCN) ([3]; Table 1, rotaxanes): 24.9 | pKaH+ ([3]; in CD3CN): 24.9 ± 0.1 | increase in the basicity of the secondary amine upon encapsulation ([3]; rotaxane vs thread 3, from pKaH+ values): 10^13 fold | Half-life, t1/2 ([4]; 80 °C): 169.69 days | half-life (h) (25 °C) ([4]; 25 °C): >5000 h | half-life (h) (80 °C) ([4]; 80 °C): 4073 h | rate of substrate deprotonation relative to the other rotaxanes in the series ([4]; in words): much more slowly

Structure (SMILES): C1COCCOCCOCCOCCOCCOCCO1.FC(F)(F)c1cc(C[NH2+]Cc2cc(C(F)(F)F)cc(C(F)(F)F)c2)cc(C(F)(F)F)c1.F[P-](F)(F)(F)(F)F [21C7⊂3•HPF6]
Half-life [2, 6]: < 0.083 h | pKaH+ (MeCN) ([3]; Table S2, rotaxane HPF6 salts): 24.9

Structure (SMILES): C1COCCOCCOCCOCCOCCOCCO1.Cc1cc(C)cc(CNCc2cc(C)cc(C)c2)c1 [21C7⊂6]
hydrolytic stability (in words) ([2]; 1 M NaOD, 9:1 CD3OD/D2O): stable; also recorded: excellent chemical stability | half-life (25 °C) [2, 5]: >170 h | half-life (80 °C) [2, 7]: >170 h | pKaH+ (MeCN) ([3]; Table 1, rotaxanes): 32.2 | basicity higher than either non-interlocked component ([3]; in CD3CN): ~13 orders of magnitude | pKaH+ ([3]; in CD3CN): 32.2 ± 0.6 | Half-life, t1/2 ([4]; 25 °C): 0.00625 days | half-life (h) (25 °C) ([4]; 25 °C): 0.15 h | rate of deprotonation of 4-bromophenethyl bromide relative to the conventional organic superbases ([4]; in words): several thousand times faster

Structure (SMILES): C1COCCOCCOCCOCCOCCOCCO1.Cc1cc(C)cc(C[NH2+]Cc2cc(C)cc(C)c2)c1.F[P-](F)(F)(F)(F)F [21C7⊂6•HPF6]
Half-life [2, 8]: > 170 h | pKaH+ (MeCN) ([3]; Table S2, rotaxane HPF6 salts): 32.2

Structure (SMILES): C1CCC2=NCCCN2CC1 [DBU, 1,8-diazabicyclo(5.4.0)undec-7-ene, reference compound]
pKaH+ (MeCN) [1, 9]: 24.3[1] | pKaH+ (MeCN) [1, 10]: 24.3 | pKaH+ (MeCN) ([1]; Table S2, reference superbases): 24.3 | Half-life ([2]; buffer, Half-life, 25 °C, 1 M NaOD in 9:1 d4-methanol:D2O, pseudo-first-order): 10.9 h | Half-life ([2]; buffer, half-life (25 °C), hydrolytic decomposition, 1 M NaOD, 9:1 CD3OD/D2O, 25 °C): 11 h | Half-life, t1/2 ([4]; 25 °C): 26.47 days | half-life (h) (25 °C) ([4]; 25 °C): 635 h

Structure (SMILES): CN(C)P(=NC(C)(C)C)(N(C)C)N(C)C [P1-^tBu, tert-butylimino-tris(dimethylamino)phosphorane, reference compound]
pKaH+ (MeCN) [1, 9]: 27.0[1] | pKaH+ (MeCN) [1, 10]: 27 | pKaH+ (MeCN) ([1]; Table S2, reference superbases): 27.0 | Half-life [2, 8]: > 170 h | half-life (25 °C) [2, 5]: >170 h | half-life (80 °C) [2, 7]: >170 h | Half-life, t1/2 ([4]; 25 °C): 17.45 days | half-life (h) (25 °C) ([4]; 25 °C): 419 h

Structure (SMILES): CN(C)c1cccc2cccc(N(C)C)c12 [proton-sponge]
pKaH+ ([1]; in MeCN): 18.6

Now from value to compound, other results behind:

hydrolytic stability (in words) ([2]; 1 M NaOD, 9:1 CD3OD/D2O): decompose quickly | half-life (25 °C) [2, 5]: 6 h | pKaH+ (MeCN) ([3]; Table 1, rotaxanes): 26.3 | pKaH+ ([3]; in CD3CN): 26.3 ± 0.22 and 26.3 ± 0.2 | Half-life, t1/2 ([4]; 80 °C): 10.8 days | half-life (h) (25 °C) ([4]; 25 °C): >5000 h | half-life (h) (80 °C) ([4]; 80 °C): 260 h
Structure (SMILES): C1COCCOCCOCCOCCOCCOCCOCCO1.CC(C)(C)c1cc(CNCc2cc(C(C)(C)C)cc(C(C)(C)C)c2)cc(C(C)(C)C)c1 [24C8⊂2]
rate of substrate deprotonation relative to the other rotaxanes in the series ([4]; in words): much more slowly

Half-life [2, 6]: 6.2 h | pKaH+ (MeCN) ([3]; Table S2, rotaxane HPF6 salts): 26.3
Structure (SMILES): C1COCCOCCOCCOCCOCCOCCOCCO1.CC(C)(C)c1cc(C[NH2+]Cc2cc(C(C)(C)C)cc(C(C)(C)C)c2)cc(C(C)(C)C)c1.F[P-](F)(F)(F)(F)F [24C8⊂2•HPF6]

hydrolytic stability (in words) ([2]; 1 M NaOD, 9:1 CD3OD/D2O): stable | half-life (25 °C) [2, 5]: >170 h | half-life (80 °C) [2, 7]: >170 h | pKaH+ (MeCN) ([3]; Table 1, rotaxanes): 20.5 | pKaH+ ([3]; in CD3CN): 20.5 ± 0.1 | Half-life, t1/2 ([4]; 25 °C): 7.317 days | half-life (h) (25 °C) ([4]; 25 °C): 176 h
Structure (SMILES): C1COCCOCCOCCOCCOCCOCCOCCO1.FC(F)(F)c1cc(CNCc2cc(C(F)(F)F)cc(C(F)(F)F)c2)cc(C(F)(F)F)c1 [24C8⊂3]

Half-life [2, 8]: > 170 h | pKaH+ (MeCN) ([3]; Table S2, rotaxane HPF6 salts): 20.5
Structure (SMILES): C1COCCOCCOCCOCCOCCOCCOCCO1.FC(F)(F)c1cc(C[NH2+]Cc2cc(C(F)(F)F)cc(C(F)(F)F)c2)cc(C(F)(F)F)c1.F[P-](F)(F)(F)(F)F [24C8⊂3•HPF6]

pKaH+ ([3]; in CD3CN): 22.9 ± 0.3 and 22.9 ± 0.1
Structure (SMILES): C1COCCOCCOCCOCCOCCOCCOCCO1.CC(C)(C)c1cc(CNCc2cc(C(F)(F)F)cc(C(F)(F)F)c2)cc(C(C)(C)C)c1 [24C8⊂4]

pKaH+ ([3]; in CD3CN): 23.2 ± 0.3 and 23.2 ± 0.2
Structure (SMILES): C1COCCOCCOCCOCCOCCOCCOCCO1.COc1c(C(C)(C)C)cc(CNCc2cc(C(F)(F)F)cc(C(F)(F)F)c2)cc1C(C)(C)C [24C8⊂5]

Half-life [2, 8]: > 170 h | pKaH+ (MeCN) ([3]; Table S2, rotaxane HPF6 salts): 20.3
Structure (SMILES): FC(F)(F)c1cc(C[NH2+]Cc2cc(C(F)(F)F)cc(C(F)(F)F)c2)cc(C(F)(F)F)c1.F[P-](F)(F)(F)(F)F.c1ccc2c(c1)OCCOCCOCCOc1ccccc1OCCOCCOCCO2 [DB24C8⊂3•HPF6]

Half-life [2, 8]: > 170 h | pKaH+ (MeCN) ([3]; Table S2, rotaxane HPF6 salts): 20.7
Structure (SMILES): F[P-](F)(F)(F)(F)F.O=C(CC[NH2+]Cc1cc(C(F)(F)F)cc(C(F)(F)F)c1)Nc1cc(C(F)(F)F)cc(C(F)(F)F)c1.c1ccc2c(c1)OCCOCCOCCOc1ccccc1OCCOCCOCCO2 [DB24C8⊂8•HPF6]

Reference: paper PMC10119927, “Compact Rotaxane Superbases” (Journal of the American Chemical Society, 2023)
